# Test results: patent publication US20170224643A1, “METHOD FOR AVOIDING OR INHIBITION OF DYSKINESIA” (Research Foundation of the City University of New York, priority 2016, published 2017)
# “Also recorded” adds a separate entry of the source.
# What was measured:
# [1] = system: Shh-nLacZ^C/C/Dat-Cre mice; assay: L-Dopa induced dyskinesia in mice with genetic ablation of Shh from dopamine neurons; assay type: in vivo
# [2] = system: unilateral 6-OHDA model of LID; assay: unilateral 6-OHDA model of L-Dopa induced dyskinesia, abnormal induced movements (AIMs) scoring; assay type: in vivo, mice
# From the text: (§1) Assessing dopamine hyper-sensitivity in the unilateral 6-OHDA model of LID. The well-established unilateral 6-OHDA model of LIDs was used in which the injection of the neurotoxin results in unilateral DA hypersensitivity due to a greater than 80% DA neuron degeneration, and subsequent dopamine hypersensitivity. Two weeks after 6-OHDA injection, the degree of functional deficits are quantified by assessing contralateral paw use in a “cylinder test” (FIG. 1). In untreated, 6-OHDA injected animals contralateral paw use during rearing at the glass wall is reduced from random (50%, dotted line) due to the dopaminergic lesion and resulting reduced dopamine secretion (FIG. 1, white bars). Upon dopamine substitution by a single dose of L-Dopa contralateral paw use is increased above random (50% dotted line) due to dopamine hypersensitivity that developed in response to reduced dopamine levels (FIG. 1 black bars).
# Inhibition of Smo by cyclopamine INCREASES LIDs After the functional assessment of dopaminergic denervation in the 6-OHDA model of LIDS, LIDs are induced by daily injections of L-Dopa (5 mg/kg, IP) for 13 days followed by quantification of dyskinesia. Abnormal movements are assessed for 1 min every 20 min, over a period of 120 min immediately after L-DOPA administration coinciding with the peak of L-Dopa dependent DA release. Abnormal induced movements (AIMs), clearly distinct from natural stereotyped behaviors (i.e., grooming, sniffing, rearing, and gnawing), are classified following a well-established scheme in the field of dyskinesia research into four different subtypes: locomotive (tight contralateral turns), axial (contralateral dystonic posture of the neck and upper body), limb (jerky and fluttering movements of the limb contralateral to the side of the lesion), and orofacial (vacuous jaw movements and tongue protrusions) (Sebastianutto, I., N. Maslava, C. R. Hopkins, and M. A. Cenci, Validation of an improved scale for rating l-DOPA-induced dyskinesia in the mouse and effects of specific dopamine receptor antagonists. Neurobiology of disease, 2016. 96: p. 156-170.). The co-administration of the Smo antagonist cyclopamine (5 mg/kg, IP) together with L-Dopa (5mg/kg, IP) at day 14 results in an approximately 80% increase in LIDs (FIG. 2, black bar) compared to L-Dopa alone (FIG. 2, white bar).
# Stimulation of Smo by SAG DECREASES LIDs. Analogous to the experiments testing the inhibition of Smo, the unilateral 6-OHDA model of LIDs was used to test the effect of activating Smo signaling by the agonist SAG (FIG. 5). Two weeks after 6-OHDA injection, LIDs are induced by daily injections of L-Dopa (5 mg/kg, IP) for 16 days. A gradual increase in the display of dyskinesia was observed from day 4 to day 16 (FIG. 5, white bars). Consistent with the hypothesis and conversely to the facilitation of LIDs by the inhibition of Smo signaling, applicant found about a twofold REDUCTION in the display of LIDs upon the co-administration of a L-Dopa dose (5 mg/kg, […] 5, black bar).
# Stimulation of Smo by Purmorphamine DECREASES LIDs. Analogous to the experiments testing the inhibition of Smo, the unilateral 6-OHDA model of LIDs was used to test the effect of activating Smo signaling by the agonist Purmorphamine (PUR). Two weeks after 6-OHDA injection, LIDs are induced by daily injections of L-Dopa (5 mg/kg, IP) for 14 days. A gradual increase in the display of dyskinesia was observed from day 4 to day 11 (FIG. 6, white bars). Consistent with the hypothesis and similar to the results with stimulating Smo with SAG and conversely to the facilitation of LIDs by the inhibition of Smo signaling, applicant finds about 40% REDUCTION in the display of LIDs upon the co-administration of a L-Dopa “challenge” dose (20 mg/kg; IP, i.e. 4×the regular dose) together with the Smo agonist Purmorphamine (15 mg/kg, IP) on day 15 (FIG. 6, black bar). […]
# [3] = system: aphakia mouse line, a genetic model of LID; assay: aphakia mouse model of LID, three paw dyskinesia scoring; assay type: in vivo, mice; conditions: for effect on AIMs induced by daily L-Dopa: aphakia mouse line
# From the text: Inhibition of Smo by cyclopamine in thegenetic “aphakia ” model of dyskinesia INCREASES LIDs. Analogous to the use of the unilateral 6-OHDA model of LID, we tested whether Shh signaling effects the formation and display of LID in an independent, genetic model, the well-studied Aphakia mouse model. […] The hypo-dopaminergic state of these animals is thought to be similar to the dopaminergic state of Parkinson's disease patients. It is well established that these mice readily develop LID upon semi chronic dosing with L-Dopa. […] Daily systemic injections of L-Dopa (20 mg/kg, IP) results in progressive display of 3 paw dyskinesia over 7 days (FIG. 3, white bars. Co-injection of cyclopamine (5 mg/kg, IP) together with L-Dopa (20 mg/kg, IP) on day 8 results in a roughly 3 fold increase in 3-paw dyskinesia compared to day 7 (FIG. 3, see d8, black bar). Further daily co-injections of cyclopamine together with L-Dopa (5 mg/kg, IP and 20 mg/kg, IP, resp.) results in further increases in dyskinesia scores reaching 7 fold the score obtained after 7 days of L-Dopa only dosing (FIG. 3, see d11, black bar compared to d7, white bar).
# Stimulation of Smo by SAG in a genetic model of dyskinesia DECREASES LIDs. Analogous to testing the effect of cyclopamine, we used the aphakia mouse line to determine whether stimulation of Shh signaling might reduce the display of established LID. We injected daily for 28 days L-Dopa (20 mg/kg; IP). On day 29 we co-injected SAG (20 mg/kg, IP) together with L-Dopa (20 mg/kg, IP). We scored 3 paw dyskinesia at day 28 (FIG. 9: white bar) and day 29 (FIG. 9: black bar) and find a roughly 2 fold reduction in dyskinesia upon SAG dosing.
# Movement disorders: official journal of the Movement Disorder Society, 2015. 30(6): p. 788-95.). Analogous to testing the effects of the stimulation of Smo by SAG in the aphakia mouse model of dyskinesia described above we injected daily L-Dopa (25 mg/kg, IP) for 21 days. All animals developed robust dyskinesia scores. On day 21 animals were randomly assigned into 4 groups.
# [4] = system: two models of LID (unilateral 6-OHDA model and aphakia mouse line); assay: meta-analysis of dyskinesia measurements across two models of LID, ratio over L-Dopa only controls; assay type: in vivo, mice; conditions: for effect on dyskinesia (words): 6-OHDA model and aphakia mouse line, compared to controls; for reduction in expression of established dyskinesia over L-Dopa only controls: acute stimulation of Smo, combined across models
# From the text: Meta-analysis of dyskinesia measurements across two models of LID and three structurally distinct compounds (cyclopamine, SAG, purmorphamine):. A ratiometric expression of LID after treatment with Smo antagonist or agonists over L-Dopa only treated controls allows applicant to present results combined across two distinct models of dyskinesia and three distinct compounds. Setting dyskinesia scores observed in L-Dopa only treated controls as 1 (FIG. 11: dotted line and white bar), we find that inhibition of Smo by cyclopamine results in a 70% INCREASE of dyskinesia (FIG. 11: black bar labeled “a”). Conversely, acute stimulation of Smo by SAG leads to a roughly 2 fold REDUCTION in the expression of established dyskinesia (FIG. 11, black bar labeled “b”) and semi chronic daily dosing with SAG together with L-Dopa (“adjuvants” strategy) leads to about 70% reduction in the formation and display of LIDs (FIG. 11, black bar labeled “c” Consistent and similar to the effect of SAGthe acute stimulation of Smo with Purmorphamine leads to a roughly 2 fold REDUCTION in the display of established LID (FIG. 11, black bar labeled “d”).
# [5] = system: unilateral 6-OHDA lesioned animals; assay: cylinder test of contralateral paw use after unilateral 6-OHDA lesion; assay type: in vivo, mice; conditions: single dose L-Dopa 5 mg/kg IP; random = 50%
# Method: FIG. 1 depicts assessment of 6-OHDA induced dopaminergic lesion. All animals of cohorts A and B were lesioned unilaterally by stereotactic injection of 6-OHDA into the dorso-lateral striatum. White bars: saline injected, black bars: L-dopa (5 mg/kg, IP) injected. Unilateral striatal 6-OHDA injection results in […] dopamine hypersensitivity. (**=p<0.001, ***=p<0.0001, t-test; n=9-11/treatment group; mean±SEM);
# as §1
# Parkinson's Patients = conditions: Pahwa et al. 2015; cited from earlier work
compound,measurement,setting,value
CNC1CCC(N(Cc2cccc(-c3ccncc3)c2)C(=O)c2sc3ccccc3c2Cl)CC1 (stereo not shown) [SAG],reduction of dyskinesia score compared to day 20,"[1]; single injection SAG 20 mg/kg IP with L-Dopa on day 22, ratio mutants over controls",about 10 fold
same,LID scores after SAG wash-out,"[2]; L-Dopa 5 mg/kg IP daily without SAG, d16 to d34, after 14 days of L-Dopa/SAG",indistinguishable from control groups
same,effect of chronic dosing with SAG together with L-Dopa on AIMs,[2]; SAG as adjuvant to daily L-Dopa,"reversible, dose dependent build-up of a reduction of abnormal induced movements; also recorded: build-up of a reduction of abnormal induced movements over 7 days"
same,reduction of dyskinesia,"[2]; daily SAG 0.8 mg/kg IP with L-Dopa 5 mg/kg IP, day 12",45%
same,reduction of dyskinesia,"[2]; daily SAG 2.5 mg/kg with L-Dopa 5 mg/kg IP, 4 days of dosing",50%
same,reduction of dyskinesia,"[2]; daily SAG 7 mg/kg IP with L-Dopa 5 mg/kg IP, day 4",about 50%
same,reduction of dyskinesia,"[2]; daily SAG 7 mg/kg IP with L-Dopa 5 mg/kg IP, day 14",about 80%
same,reduction of AIMS scores over the control group,"[2]; daily SAG 10 mg/kg IP with L-Dopa 5 mg/kg IP for 14 days, day 14",greater than 2 fold
same,reduction in LIDs compared to controls,"[2]; within subject escalation, SAG 15 mg/kg IP, day 51, L-Dopa 20 mg/kg IP",greater than 2 fold
same,reduction in 3 paw dyskinesia,"[3]; SAG 20 mg/kg IP with L-Dopa 20 mg/kg IP on day 29, vs day 28",roughly 2 fold
same,reduction in the display of LID,"[3]; SAG 20 mg/kg IP with L-Dopa 25 mg/kg IP on day 21, compared to controls",2 fold
same,effect on AIMs induced by daily L-Dopa,[3],decreases abnormal induced movements
same,effect on dyskinesia (words),[4],decrease dyskinesia; also recorded: delayed and weaker/blunted induction and reduced expression of dyskinesia
same,reduction in expression of established dyskinesia over L-Dopa only controls,[4],roughly 2 fold
same,reduction in the formation and display of LIDs over L-Dopa only controls,[4]; semi chronic daily dosing with SAG together with L-Dopa,about 70%
c1ccc2c(Oc3nc(Nc4ccc(N5CCOCC5)cc4)c4ncn(C5CCCCC5)c4n3)cccc2c1 [Purmorphamine],reduction in the display of LIDs,[2]; Purmorphamine 15 mg/kg IP with L-Dopa challenge dose 20 mg/kg IP on day 15,about 40%
same,reduction of AIMs,[2]; single dose Purmorphamine 15 mg/kg IP co-injected with L-Dopa 20 mg/kg IP after daily L-Dopa 5 mg/kg IP,2 fold
same,effect on dyskinesia (words),[4],decrease dyskinesia
same,effect on dyskinesia (words),[4]; listed as purmorphamine,delayed and weaker/blunted induction and reduced expression of dyskinesia
same,reduction in expression of established dyskinesia over L-Dopa only controls,[4],roughly 2 fold
N[C@@H](Cc1ccc(O)c(O)c1)C(=O)O [L-Dopa],formation of LID,"[1]; daily L-Dopa 10 mg/kg IP, 16 days, mutants, not in litter controls",formation of LID over time
same,increase in LID scores,"[2]; daily L-Dopa ramped up to 20 mg/kg IP, day 34 compared to day 27",3 fold
same,contralateral paw use during rearing,[5],> 50%
NC12CC3CC(CC(C3)C1)C2 [Amantadine],inhibition of dyskinesia,Parkinson's Patients,23%
same,reduction of LID,"[3]; amantadine 40 mg/kg IP with L-Dopa 25 mg/kg IP on day 21, did not reach significance",roughly 30%
CC1=C2C[C@H]3[C@@H](CC=C4C[C@@H](O)CC[C@@]43C)[C@@H]2CC[C@]12O[C@@H]1C[C@H](C)CN[C@H]1[C@H]2C [cyclopamine],effect on AIMs induced by daily L-Dopa,[3],increases abnormal induced movements
same,increase in 3-paw dyskinesia,"[3]; cyclopamine 5 mg/kg IP with L-Dopa 20 mg/kg IP on day 8, compared to day 7",roughly 3 fold
same,dyskinesia score relative to 7 days of L-Dopa only dosing,"[3]; daily cyclopamine 5 mg/kg IP with L-Dopa 20 mg/kg IP, d11 compared to d7",7 fold
same,effect on dyskinesia (words),[4],more rapid induction and stronger expression of dyskinesia
same,effect on dyskinesia (words),[4]; listed as Cyclopamine,increases dyskinesia
same,increase of dyskinesia over L-Dopa only controls,"[4]; combined across two models, controls set to 1",70%
